Literature values in patent publication US20180371542A1, “OPIOID RECEPTOR BLOCKADE IN TREATING ALCOHOL USE DISORDERS” (MUSC Foundation for Research Development, priority 2017, published 2018).

System: DSM-IV alcohol dependent individuals
Details: all subjects irrespective of genotype; initial report (Schacht et al., 2017)

O=C1CC[C@@]2(O)[C@H]3Cc4ccc(O)c5c4[C@@]2(CCN3CC2CC2)[C@H]1O5 [naltrexone]
Main effect of naltrexone over placebo overall: significant main effect of naltrexone over placebo
